Test results as given in patent publication US10709709B2, “Substituted carbonucleoside derivatives useful as anticancer agents” (Pfizer Inc., priority 2016, dated 2020).

What was measured:
[1] = biological target: PRMT5/MEP50 protein complex (Homo sapiens (Human), UniProt O14744); test: PRMT5 biochemical assay (3H-SAM methylation of H4(1-21) peptide, filter plate scintillation); conditions: 10 nM PRMT5/MEP50 complex, 200 nM H4(1-21) peptide, 1 uM SAM, 25 minute incubation at room temperature
In short: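 Scintillation read-out: after 25 min at room temperature and a TCA stop, tritiated H4(1-21) product (peptide 200 nM) is caught on a filter plate. Reaction holds 10 nM PRMT5/MEP50 and 1 uM 3H-labelled plus cold SAM in 50 mM Tris pH 8.5 with MgCl2, EDTA and TCEP. IC50 values come from a 4-parameter dose-response fit.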

[2] = test system: A549 lung adenocarcinoma cells; test: A549 proliferation assay (Cell Titer Glo); type: cell-based; conditions: 7 days with compound, cell viability by Cell Titer Glo (ATP)
In short: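 A549 cells plated overnight, then treated with nine-point 3.3-fold dilutions (final top 10 μM, 0.2% DMSO) for 7 days at 37 °C, with media and compound refreshed on day 4. Viability measured as ATP by Cell Titer Glo luminescence; IC50 from 4-parameter fit normalized to DMSO control.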

Sequence of PRMT5/MEP50 protein complex (O14744 other isoform, or with tags, fused parts or gaps): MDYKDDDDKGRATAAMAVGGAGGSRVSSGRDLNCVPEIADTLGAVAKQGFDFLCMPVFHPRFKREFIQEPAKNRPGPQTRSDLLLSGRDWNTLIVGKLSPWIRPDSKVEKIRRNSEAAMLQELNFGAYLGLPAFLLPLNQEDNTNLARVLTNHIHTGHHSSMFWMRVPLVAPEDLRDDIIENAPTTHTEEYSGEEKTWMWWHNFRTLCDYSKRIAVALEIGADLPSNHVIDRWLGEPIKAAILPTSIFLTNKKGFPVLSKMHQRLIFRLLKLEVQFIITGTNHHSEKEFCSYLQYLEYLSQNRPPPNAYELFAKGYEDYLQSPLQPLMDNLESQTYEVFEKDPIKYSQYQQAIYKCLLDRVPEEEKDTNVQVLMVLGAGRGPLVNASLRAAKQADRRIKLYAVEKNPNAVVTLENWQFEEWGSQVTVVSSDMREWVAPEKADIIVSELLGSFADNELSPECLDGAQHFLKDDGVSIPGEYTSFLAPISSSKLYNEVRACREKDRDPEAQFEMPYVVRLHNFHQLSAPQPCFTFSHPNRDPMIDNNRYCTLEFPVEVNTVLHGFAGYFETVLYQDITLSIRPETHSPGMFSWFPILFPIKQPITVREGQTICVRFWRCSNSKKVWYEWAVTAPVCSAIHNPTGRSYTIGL
Sequence of PRMT5/MEP50 protein complex (Q9BQA1 whole entry partner): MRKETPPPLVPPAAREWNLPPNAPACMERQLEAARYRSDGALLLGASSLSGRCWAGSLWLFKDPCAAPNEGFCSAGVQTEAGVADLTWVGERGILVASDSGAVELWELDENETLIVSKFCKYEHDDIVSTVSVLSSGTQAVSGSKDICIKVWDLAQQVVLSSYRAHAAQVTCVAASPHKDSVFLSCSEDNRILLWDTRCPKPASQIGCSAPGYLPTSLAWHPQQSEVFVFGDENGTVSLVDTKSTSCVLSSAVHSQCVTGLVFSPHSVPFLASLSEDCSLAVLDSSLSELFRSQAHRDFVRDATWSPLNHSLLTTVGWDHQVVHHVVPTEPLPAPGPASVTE

| Structure (SMILES) | IC50 [1] | IC50 ([2]; Homo sapiens, A549, 168 h) | IC50 [2] |
| --- | --- | --- | --- |
| Cc1ncnc2c1ccn2[C@@H]1C[C@H](Oc2ccc(Cl)c3c2CNCC3)[C@@H](O)[C@H]1O [Example 86, (1S,2S,3S,5R)-3-((5-chloro-1,2,3,4-tetrahydroisoquinolin-8-yl)oxy)-5-(4-methyl-7H-pyrrolo[2,3-d]pyrimidin-7-yl)cyclopentane-1,2-diol] | 4 nM | 1840 nM |  |
| Cc1ncnc2c1ccn2[C@@H]1C[C@H](Oc2ccc(F)c3c2C(C)NCC3)[C@@H](O)[C@H]1O (single isomer, unassigned) [Example 214] | 8 nM |  | 1080 nM |
| Cc1ncnc2c1ccn2[C@@H]1C[C@H](Oc2cc(Cl)c(F)cc2[C@@H](C)N)[C@@H](O)[C@H]1O [Example 140, (1S,2S,3S,5R)-3-(2-((R)-1-aminoethyl)-5-chloro-4-fluorophenoxy)-5-(4-methyl-7H-pyrrolo[2,3-d]pyrimidin-7-yl)cyclopentane-1,2-diol] | 17 nM | 2380 nM |  |
| Cc1ncnc2c1ccn2[C@@H]1C[C@H](Oc2cccc3c2CN[C@@H](C)CO3)[C@@H](O)[C@H]1O [Example 207, (1S,2S,3S,5R)-3-(((S)-3-methyl-2,3,4,5-tetrahydrobenzo[f][1,4]oxazepin-6-yl)oxy)-5-(4-methyl-7H-pyrrolo[2,3-d]pyrimidin-7-yl)cyclopentane-1,2-diol] | 24 nM | 1480 nM |  |
| Cc1ncnc2c1ccn2[C@@H]1C[C@H](Oc2cc(Cl)cc3c2CNCC3)[C@@H](O)[C@H]1O [Example 87, (1S,2S,3S,5R)-3-((6-chloro-1,2,3,4-tetrahydroisoquinolin-8-yl)oxy)-5-(4-methyl-7H-pyrrolo[2,3-d]pyrimidin-7-yl)cyclopentane-1,2-diol] | 2 nM | 296 nM |  |
| Nc1ncnc2c1c(F)cn2[C@@H]1C[C@H]([C@H](O)c2ccc(F)cc2)[C@@H](O)[C@H]1O [Example 25, (1R,2S,3R,5R)-3-(4-amino-5-fluoro-7H-pyrrolo[2,3-d]pyrimidin-7-yl)-5-[(S)-(4-fluorophenyl)(hydroxy)methyl]cyclopentane-1,2-diol] | 56 nM | 1670 nM |  |
| Cc1ncnc2c1ccn2[C@@H]1C[C@H](Oc2cccc3c2CNCCO3)[C@@H](O)[C@H]1O [Example 164, (1S,2S,3R,5S)-3-(4-methyl-7H-pyrrolo[2,3-d]pyrimidin-7-yl)-5-((2,3,4,5-tetrahydrobenzo[f][1,4]oxazepin-6-yl)oxy)cyclopentane-1,2-diol] | 4 nM | 3860 nM |  |
| Cc1ncnc2c1ccn2[C@@H]1C[C@H](Oc2cncc3c2CNCC3)[C@@H](O)[C@H]1O [Example 95, (1S,2S,3R,5S)-3-(4-methyl-7H-pyrrolo[2,3-d]pyrimidin-7-yl)-5-((5,6,7,8-tetrahydro-2,6-naphthyridin-4-yl)oxy)cyclopentane-1,2-diol] | 6 nM | 8130 nM |  |
| Cc1cc2c(c(O[C@H]3C[C@@H](n4cc(C)c5c(N)ncnc54)[C@H](O)[C@@H]3O)c1)CNCC2 [Example 122, (1S,2S,3R,5S)-3-(4-amino-5-methyl-7H-pyrrolo[2,3-d]pyrimidin-7-yl)-5-((6-methyl-1,2,3,4-tetrahydroisoquinolin-8-yl)oxy)cyclopentane-1,2-diol] | 3 nM | 4480 nM |  |
| Cc1ncc2c(F)cn([C@@H]3C[C@H](Oc4ccc(F)c5c4CNCC5)[C@@H](O)[C@H]3O)c2n1 [Example 132, (1S,2S,3S,5R)-3-((5-fluoro-1,2,3,4-tetrahydroisoquinolin-8-yl)oxy)-5-(5-fluoro-2-methyl-7H-pyrrolo[2,3-d]pyrimidin-7-yl)cyclopentane-1,2-diol] | 2 nM | 2750 nM |  |
| Cc1ncnc2c1ccn2[C@@H]1C[C@H]([C@H](O)c2ccc(Cl)c(F)c2)[C@@H](O)[C@H]1O [Example 160, (1S,2R,3R,5R)-3-((S)-(4-chloro-3-fluorophenyl)(hydroxy)methyl)-5-(4-methyl-7H-pyrrolo[2,3-d]pyrimidin-7-yl)cyclopentane-1,2-diol] | 9 nM | 405 nM |  |
| Cc1ncnc2c1ccn2[C@@H]1C[C@H](Oc2cc(C(F)(F)F)cc3c2CNCC3)[C@@H](O)[C@H]1O [Example 90, (1S,2S,3R,5S)-3-(4-methyl-7H-pyrrolo[2,3-d]pyrimidin-7-yl)-5-((6-(trifluoromethyl)-1,2,3,4-tetrahydroisoquinolin-8-yl)oxy)cyclopentane-1,2-diol] | 2 nM | 948 nM |  |
| CN1CCc2cccc(O[C@H]3C[C@@H](n4cc(F)c5c(N)ncnc54)[C@H](O)[C@@H]3O)c2C1 [Example 114, (1S,2S,3R,5S)-3-(4-amino-5-fluoro-7H-pyrrolo[2,3-d]pyrimidin-7-yl)-5-((2-methyl-1,2,3,4-tetrahydroisoquinolin-8-yl)oxy)cyclopentane-1,2-diol] | 4 nM | 3940 nM |  |
| Cc1ncnc2c1ccn2[C@@H]1C[C@H]([C@](C)(O)c2ccc(F)cc2)[C@@H](O)[C@H]1O [Example 19, (1S,2R,3S,5R)-3-[(1 S)-1-(4-fluorophenyl)-1-hydroxyethyl]-5-(4-methyl-7H-pyrrolo[2,3-d]pyrimidin-7-yl)cyclopentane-1,2-diol] | 64 nM | 1070 nM |  |

Now those with a lower IC50 [1], led by results:

| IC50 [1] | IC50 ([2]; Homo sapiens, A549, 168 h) | IC50 [2] | Structure (SMILES) |
| --- | --- | --- | --- |
| 1 nM | 1550 nM |  | Cc1ncnc2c1ccn2[C@@H]1C[C@H](Oc2cccc3c2CNC[C@H](C)O3)[C@@H](O)[C@H]1O [Example 210, (1S,2S,3S,5R)-3-(((S)-2-methyl-2,3,4,5-tetrahydrobenzo[f][1,4]oxazepin-6-yl)oxy)-5-(4-methyl-7H-pyrrolo[2,3-d]pyrimidin-7-yl)cyclopentane-1,2-diol] |
| 1 nM | 1040 nM |  | Cc1cc2c(c(O[C@H]3C[C@@H](n4cc(Cl)c5c(N)ncnc54)[C@H](O)[C@@H]3O)c1)CNCC2 [Example 129, (1S,2S,3R,5S)-3-(4-amino-5-chloro-7H-pyrrolo[2,3-d]pyrimidin-7-yl)-5-((6-methyl-1,2,3,4-tetrahydroisoquinolin-8-yl)oxy)cyclopentane-1,2-diol] |
| 1 nM | 677 nM |  | Cc1ncnc2c1ccn2[C@@H]1C[C@H](Oc2cc(F)cc3c2CNCCO3)[C@@H](O)[C@H]1O [Example 203, (1S,2S,3S,5R)-3-((8-fluoro-2,3,4,5-tetrahydrobenzo[f][1,4]oxazepin-6-yl)oxy)-5-(4-methyl-7H-pyrrolo[2,3-d]pyrimidin-7-yl)cyclopentane-1,2-diol] |
| 1 nM | 383 nM |  | Cc1cc2c(c(O[C@H]3C[C@@H](n4cc(F)c5c(N)ncnc54)[C@H](O)[C@@H]3O)c1)CNCC2 [Example 105, (1S,2S,3R,5S)-3-(4-amino-5-fluoro-7H-pyrrolo[2,3-d]pyrimidin-7-yl)-5-((6-methyl-1,2,3,4-tetrahydroisoquinolin-8-yl)oxy)cyclopentane-1,2-diol] |
| 1 nM | 460 nM |  | Nc1ncnc2c1c(F)cn2[C@@H]1C[C@H](Oc2cc(C(F)(F)F)cc3c2CNCC3)[C@@H](O)[C@H]1O [Example 104, (1S,2S,3R,5S)-3-(4-amino-5-fluoro-7H-pyrrolo[2,3-d]pyrimidin-7-yl)-5-((6-(trifluoromethyl)-1,2,3,4-tetrahydroisoquinolin-8-yl)oxy)cyclopentane-1,2-diol] |
| 1 nM | 1620 nM |  | Cc1ncnc2c1ccn2[C@@H]1C[C@H](Oc2cccc3c2CNCC3)[C@@H](O)[C@H]1O [Example 78, (1S,2S,3R,5S)-3-(4-methyl-7H-pyrrolo[2,3-d]pyrimidin-7-yl)-5-((1,2,3,4-tetrahydroisoquinolin-8-yl)oxy)cyclopentane-1,2-diol] |
| 1 nM | 3 nM |  | Nc1ncnc2c1c(F)cn2[C@@H]1C[C@H](Oc2cc(C(F)F)c(F)c3c2CNCC3)[C@@H](O)[C@H]1O [Example 196, (1S,2S,3R,5S)-3-(4-amino-5-fluoro-7H-pyrrolo[2,3-d]pyrimidin-7-yl)-5-((6-(difluoromethyl)-5-fluoro-1,2,3,4-tetrahydroisoquinolin-8-yl)oxy)cyclopentane-1,2-diol] |
| 1 nM | 1400 nM |  | Cc1ncnc2c1ccn2[C@@H]1C[C@H](Oc2cccc3c2CNC(C)C3)[C@@H](O)[C@H]1O (single isomer, unassigned) [Example 184] |
| 1 nM | 3460 nM |  | Cc1ncnc2c1ccn2[C@@H]1C[C@H](Oc2cc(-c3cnoc3)cc3c2CNCC3)[C@@H](O)[C@H]1O [Example 197, (1S,2S,3S,5R)-3-((6-(isoxazol-4-yl)-1,2,3,4-tetrahydroisoquinolin-8-yl)oxy)-5-(4-methyl-7H-pyrrolo[2,3-d]pyrimidin-7-yl)cyclopentane-1,2-diol] |
| 1 nM | 7020 nM |  | COc1nc(O[C@H]2C[C@@H](n3ccc4c(C)ncnc43)[C@H](O)[C@@H]2O)c2c(c1F)CCNC2 [Example 191, (1S,2S,3S,5R)-3-((4-fluoro-3-methoxy-5,6,7,8-tetrahydro-2,7-naphthyridin-1-yl)oxy)-5-(4-methyl-7H-pyrrolo[2,3-d]pyrimidin-7-yl)cyclopentane-1,2-diol] |
| 1 nM | 991 nM |  | Nc1ncnc2c1c(F)cn2[C@@H]1C[C@H](Oc2cc(F)cc3c2CNCC3)[C@@H](O)[C@H]1O [Example 107, (1S,2S,3R,5S)-3-(4-amino-5-fluoro-7H-pyrrolo[2,3-d]pyrimidin-7-yl)-5-((6-fluoro-1,2,3,4-tetrahydroisoquinolin-8-yl)oxy)cyclopentane-1,2-diol] |
| 1 nM | 1200 nM |  | Cc1ncnc2c1ccn2[C@@H]1C[C@H](Oc2ccc(F)c3c2C(C)NCC3)[C@@H](O)[C@H]1O (single isomer, unassigned) [Example 213] |
